Reference: ChEMBL document CHEMBL1133394, “Novel C-ring analogues of 20(S)-camptothecin. Part 3: synthesis and their in vitro cytotoxicity of A-, B- and C-ring analogues” (Bioorg Med Chem Lett, 2000)

What was measured:
[1] = tested on: ACHN; assay: Tested in vitro for cytotoxicity against human tumor cell line ACHN (renal).; type: functional
[2] = tested on: DU-145; assay: Tested in vitro for cytotoxicity against human tumor cell line DU-145 (prostate); type: functional
[3] = tested on: NCI/ADR-RES; assay: Tested in vitro for cytotoxicity against human tumor cell line MCF-7/ADR (breast); type: functional
[4] = tested on: OVCAR-8; assay: Tested in vitro for cytotoxicity against human tumor cell line OVCAR8 (ovarian).; type: functional
[5] = tested on: SF-268; assay: Tested in vitro for cytotoxicity against human tumor cell line SF-268 (CNS).; type: functional
[6] = tested on: UACC-62; assay: Tested in vitro for cytotoxicity against human tumor cell line UACC 62 (melanoma); type: functional
[7] = tested on: HOP-62; assay: Tested in vitro for cytotoxicity against human tumor cell line HOP62 (lung); type: functional
[8] = tested on: Panel (56 tumour cell lines); assay: Tested in vitro for cytotoxicity against 56 human tumor cell lines; type: functional, cell-based
[9] = tested on: ACHN; assay: The compound was tested in vitro for cytotoxicity against human tumor cell line ACHN (renal).; type: functional
[10] = tested on: DU-145; assay: The compound was tested in vitro for cytotoxicity against human tumor cell line DU-145 (prostate); type: functional
[11] = tested on: Mus musculus; assay: The compound (134 mg/kg) administered intravenously was tested for antitumor activity against A-498 (renal) xenograft model in mice; type: functional
[12] = tested on: Mus musculus; assay: The compound (134 mg/kg) administered intravenously was tested for antitumor activity against DU-145 (prostate) xenograft model in mice; type: functional, Prostate gland
[13] = tested on: Mus musculus; assay: (§1) The compound (134 mg/kg) administered intravenously was tested for antitumor activity against NCI-H23 (lung) xenograft model in mice; type: functional
[14] = tested on: Mus musculus; assay: The compound (200 mg/kg) administered intravenously was tested for antitumor activity against A-498 (renal) xenograft model in mice; type: functional
[15] = tested on: Mus musculus; assay: The compound (200 mg/kg) administered intravenously was tested for antitumor activity against DU-145 (prostate) xenograft model in mice; type: functional, Prostate gland
[16] = tested on: Mus musculus; assay: (§2) The compound (200 mg/kg) administered intravenously was tested for antitumor activity against NCI-H23 (lung) xenograft model in mice; type: functional
[17] = tested on: Mus musculus; assay: The compound (90 mg/kg) administered intravenously was tested for antitumor activity against A-498 (renal) xenograft model in mice; type: functional
[18] = tested on: Mus musculus; assay: The compound (90 mg/kg) administered intravenously was tested for antitumor activity against DU-145 (prostate) xenograft model in mice; type: functional, Prostate gland
[19] = tested on: Mus musculus; assay: (§3) The compound (90 mg/kg) administered intravenously was tested for antitumor activity against NCI-H23 (lung) xenograft model in mice; type: functional
[20] = tested on: Mus musculus; assay: The compound (10 mg/kg) administered intravenously was tested for antitumor activity against DU-145 (prostate) xenograft model in mice; type: functional, Prostate gland
[21] = tested on: Mus musculus; assay: The compound (2.5 mg/kg) administered intravenously was tested for antitumor activity against A-498 (renal) xenograft model in mice; type: functional
[22] = tested on: Mus musculus; assay: The compound (2.5 mg/kg) administered intravenously was tested for antitumor activity against DU-145 (prostate) xenograft model in mice; type: functional, Prostate gland
[23] = tested on: Mus musculus; assay: The compound (5 mg/kg) administered intravenously was tested for antitumor activity against A-498 (renal) xenograft model in mice; type: functional
[24] = tested on: Mus musculus; assay: The compound (5 mg/kg) administered intravenously was tested for antitumor activity against DU-145 (prostate) xenograft model in mice; type: functional, Prostate gland
[25] = tested on: Mus musculus; assay: The compound (10 mg/kg) administered intravenously was tested for antitumor activity against A-498 (renal) xenograft model in mice; type: functional
[26] = tested on: NCI-H23; assay: The compound (10 mg/kg) administered intravenously was tested for antitumor activity against NCI-H23 (lung) xenograft model in mice; type: functional, Mus musculus
[27] = tested on: NCI-H23; assay: The compound (2.5 mg/kg) administered intravenously was tested for antitumor activity against NCI-H23 (lung) xenograft model in mice; type: functional, Mus musculus
[28] = tested on: NCI-H23; assay: The compound (5 mg/kg) administered intravenously was tested for antitumor activity against NCI-H23 (lung) xenograft model in mice; type: functional, Mus musculus
[29] = tested on: NCI-H23; assay: as §1; type: functional, Mus musculus
[30] = tested on: NCI-H23; assay: as §2; type: functional, Mus musculus
[31] = tested on: NCI-H23; assay: as §3; type: functional, Mus musculus

SMILES	GI50 [1] [nM]	GI50 [2] [nM]	GI50 [3] [nM]	GI50 [4] [nM]	GI50 [5] [nM]	GI50 [6] [nM]	GI50 [7] [nM]	IC50 [8] [nM]	further results
CC[C@@]1(O)C(=O)OCc2c1cc1n(c2=O)C(OCCF)c2cc3cc(O)ccc3nc2-1 (some centres undefined)	500	250	4000	4500	20000	10000	10000	–	–
CCc1c2c(nc3cccc(OC)c13)-c1cc3c(c(=O)n1C2OCCOC)COC(=O)[C@]3(O)CC (some centres undefined)	520	1140	510	850	590	2540	660	–	–
CCOC1c2c(nc3ccc(O)cc3c2CC)-c2cc3c(c(=O)n21)COC(=O)[C@]3(O)CC (some centres undefined)	–	–	–	–	–	–	–	5000	–
CC[C@@]1(O)C(=O)OCc2c1cc1n(c2=O)C(OCCO)c2cc3cc(O)ccc3nc2-1 (some centres undefined)	3400	3260	–	2520	2100	2120	2440	–	–
CC[C@@]1(O)C(=O)OCc2c1cc1n(c2=O)Cc2cc3ccccc3nc2-1 [CAMPTOTHECIN]	–	–	–	–	–	–	–	40	–
CCc1c2c(nc3ccc(O)cc13)-c1cc3c(c(=O)n1C2OCCOC)COC(=O)[C@]3(O)CC (some centres undefined)	600	550	200	100	> 30000	600	20000	–	–
CC[C@@]1(O)C(=O)OCc2c1cc1n(c2=O)C(OCCOC)c2cc3c([N+](=O)[O-])cccc3nc2-1 (some centres undefined)	–	–	–	970	1000	470	400	–	GI50 [9]: 430 nM; GI50 [10]: 440 nM
CCOC1c2cc3cccc([N+](=O)[O-])c3nc2-c2cc3c(c(=O)n21)COC(=O)[C@]3(O)CC (some centres undefined)	–	–	–	–	–	–	–	> 30000	–
CCc1c2c(nc3cccc(OC)c13)-c1cc3c(c(=O)n1C2OCC(F)(F)F)COC(=O)[C@]3(O)CC (some centres undefined)	2830	3900	1840	2630	2130	4680	1580	–	–
CC[C@@]1(O)C(=O)OCc2c1cc1n(c2=O)C(OCCOC)c2cc3cc(O)ccc3nc2-1 (some centres undefined)	1200	680	< 10	4500	5000	520	4000	–	–
CCOC1c2cc3c(O)cccc3nc2-c2cc3c(c(=O)n21)COC(=O)[C@]3(O)CC (some centres undefined)	–	–	–	–	–	–	–	200	T-C/C [11]: 8%; T-C/C [12]: 27%; T-C/C [13]: 15%; T-C/C [14]: 6%; T-C/C [15]: 33%; T-C/C [16]: 12%; T-C/C [17]: 23%; T-C/C [18]: 9%; T-C/C [19]: 8%
CCOC1c2cc3cc(O)ccc3nc2-c2cc3c(c(=O)n21)COC(=O)[C@]3(O)CC (some centres undefined)	–	–	–	–	–	–	–	2880	–
CCc1c2c(nc3cccc(OC)c13)-c1cc3c(c(=O)n1C2OCCF)COC(=O)[C@]3(O)CC (some centres undefined)	1060	790	1990	1920	1890	2020	1220	–	–
CCOC1c2cc3c([N+](=O)[O-])cccc3nc2-c2cc3c(c(=O)n21)COC(=O)[C@]3(O)CC (some centres undefined)	–	–	–	–	–	–	–	27500	–
CCOC1c2c(nc3cccc(O)c3c2CC)-c2cc3c(c(=O)n21)COC(=O)[C@]3(O)CC (some centres undefined)	–	–	–	–	–	–	–	4670	–
CCc1c2c(nc3ccc(O)cc13)-c1cc3c(c(=O)n1C2OCCF)COC(=O)[C@]3(O)CC (some centres undefined)	8000	1000	100	500	> 30000	1000	25000	–	–
CC[C@@]1(O)C(=O)OCc2c1cc1n(c2=O)Cc2cc3c(CN(C)C)c(O)ccc3nc2-1 [TOPOTECAN]	40	40	70	200	80	30	50	160	T-C/C [20]: 339%; T-C/C [21]: 11%; T-C/C [22]: 83%; T-C/C [23]: 67%; T-C/C [24]: 35%; T-C/C [25]: 47%; T-C/C [26]: 60%; T-C/C [27]: 10%; T-C/C [28]: 6%
CC[C@@]1(O)C(=O)OCc2c1cc1n(c2=O)C(OCCO)c2cc3c([N+](=O)[O-])cccc3nc2-1 (some centres undefined)	3360	4130	–	7140	4660	2460	2450	–	–
CC[C@@]1(O)C(=O)OCc2c1cc1n(c2=O)C(OCC(F)(F)F)c2cc3cc(O)ccc3nc2-1 (some centres undefined)	100	100	200	260	30	100	60	–	T-C/C [11]: 46%; T-C/C [12]: 4%; T-C/C [14]: 27%; T-C/C [15]: 21%; T-C/C [17]: 46%; T-C/C [18]: 8%; T-C/C [29]: 58%; T-C/C [30]: 58%; T-C/C [31]: 12%
CC[C@@]1(O)C(=O)OCc2c1cc1n(c2=O)C(OCC(F)(F)F)c2cc3c([N+](=O)[O-])cccc3nc2-1 (some centres undefined)	20	60	70	130	90	160	500	–	–
CCc1c2c(nc3cccc(OC)c13)-c1cc3c(c(=O)n1C2OCCO)COC(=O)[C@]3(O)CC (some centres undefined)	3820	5020	5530	8400	1100	–	6470	–	–
CC[C@@]1(O)C(=O)OCc2c1cc1n(c2=O)C(OCCF)c2cc3c([N+](=O)[O-])cccc3nc2-1 (some centres undefined)	250	630	200	740	310	400	360	–	–
CCc1c2c(nc3ccc(O)cc13)-c1cc3c(c(=O)n1C2OCC(F)(F)F)COC(=O)[C@]3(O)CC (some centres undefined)	400	1000	400	500	2000	70	2000	–	–
CCOC1c2c(nc3cccc(OC)c3c2CC)-c2cc3c(c(=O)n21)COC(=O)[C@]3(O)CC (some centres undefined)	–	–	–	–	–	–	–	5370	–
